The values below are quoted from earlier work in patent publication US20240374627A1, “A PHARMACEUTICAL COMPOSITION COMPRISING COMBINATION OF SITAGLIPTIN AND EMPAGLIFLOZIN” (UNISON PHARMACEUTICALS PVT. LTD., priority 2021, published 2024).

The conditions of series [1]: healthy volunteers; Brand et al., Adv Ther 2012.

Read-outs that look alike come from different tables or passages of the source.

On to `OC[C@H]1O[C@@H](c2ccc(Cl)c(Cc3ccc(O[C@H]4CCOC4)cc3)c2)[C@H](O)[C@@H](O)[C@@H]1O` [Empagliflozin, (1S)-1,5-anhydro-1-(4-chloro-3-{4-[(3S)-tetrahydrofuran-3-yloxy]benzyl}phenyl)-D-glucitol], for which the “effect of coadministration on the pharmacokinetics of either drug” value in series [1] was “without specifying any clinically relevant effect”. For the same molecule, the solubility result (acetonitrile) is “slightly soluble”; the solubility result (aqueous media between pH 1-7.4, European assessment report of Jardiance) is “slightly soluble”; the solubility result (ethanol) was “slightly soluble”; the solubility result (methanol) is recorded as “sparingly soluble”; the solubility entry (toluene) is “practically insoluble”; the solubility result (water (pH 1-7.4)) is “very slightly soluble”.

Consider `N[C@@H](CC(=O)N1CCn2c(nnc2C(F)(F)F)C1)Cc1cc(F)c(F)cc1F` [Sitagliptin, 7-[(3R)-3-amino-1-oxo-4-(2,4,5-trifluorophenyl)butyl]-5,6,7,8-tetrahydro-3-(trifluoromethyl)-1,2,4-triazolo[4,3-a]pyrazine phosphate (1:1) monohydrate], for which the “effect of coadministration on the pharmacokinetics of either drug” value in series [1] is “without specifying any clinically relevant effect”. Also, the solubility result by setting is: (N,N-dimethyl formamide) “soluble”; (acetone) “soluble”; (acetonitrile) “soluble”; (ethanol) “soluble”; (isopropanol) “insoluble”; (isopropyl acetate) “insoluble”. Also, the solubility result is, setting by setting: (methanol) “slightly soluble”; (water) “soluble”.
